Measured values reported in ChEMBL document CHEMBL1255512, “Pyrazolo[1,5-a]pyrimidine acetamides: 4-Phenyl alkyl ether derivatives as potent ligands for the 18 kDa translocator protein (TSPO)” (Bioorg Med Chem Lett, 2010).

Test: Displacement of [3H]Ro151788 from CBR in rat […]
Type: tissue-based

| SMILES | Ki |
| --- | --- |
| CCC(C)N(C)C(=O)c1cc2ccccc2c(-c2ccccc2Cl)n1 (stereo not drawn) [PK-11195] | > 10 µM |
| CCN(CC)C(=O)Cc1c(-c2ccc(OC)cc2)nn2c(C)cc(C)nc12 | > 10 µM |
| CCN(CC)C(=O)Cc1c(-c2ccc(OCCF)cc2)nn2c(C)cc(C)nc12 [DPA-714] | > 10 µM |
